US20170073306A1, “POTENT INHIBITORS OF HUMAN CARBONIC ANHYDRASE II AND BOVINE CARBONIC ANHYDRASE II AND THEIR MECHANISM OF ACTION” (priority 2015, published 2017)
Read-outs that look alike come from different tables or passages of the source.

Experiments:
[1] = molecular target: T1, Bovine Carbonic Anhydrase-II (bovine erythrocyte CA-II) (Bos taurus, UniProt P00921); test: Bovine carbonic anhydrase-II inhibition, 4-nitrophenyl acetate spectrophotometric assay; format: biochemical
T1 construct: pure bovine erythrocyte CA-II; from tissue; host or cells: bovine erythrocytes
Experimental: (§1) Nineteen different analogues of benzamide sulfonamides were evaluated for carbonic anhydrase-II inhibition. The rate of catalyzed reaction was monitored by the amount of product formation by using the chromogenic substrate i.e., 4-nitrophenyl acetate.
4-Nitrophenyl acetate (4-NPA) is a colorless compound which is used as a substrate in carbonic anhydrase inhibition assay. The reaction involves the hydrolysis of 4-nitrophenyl acetate into […] and 4-nitrophenol a yellow colored compound. During this experiment, HEPES-tris buffer was used at 20 mM concentration with pH 7.4.
After 15 min of incubation of the enzyme with the test compound, the substrate was added to initiate the reaction. The reaction was carried out in triplicate with different concentrations of test compounds was used.
In this assay protocol, the reaction was performed by using a 96-well flat bottom plate.
The amount of product formation was measured at 400 nm for 30 min with 1 min interval, multiplate reader SPECTRA max 340 (Molecular Devices, CA, USA) was used to monitor the product formation.
The enzyme inhibitory activities were calculated using the following formula:
% Inhibition=100−(O.D of test/O.D of control)*100
(§2) Where test is the enzyme activity with sample and control is the enzyme activity without sample. The IC50 of the compounds were calculated by using EZ-Fit Enzyme Kinetic Program (Perrella Scientific Inc. Amhrest, U.S.A).

[2] = molecular target: T2, Bovine Carbonic Anhydrase-II (Bos taurus, UniProt P00921); test: Kinetics studies (Lineweaver-Burk, Dixon plots) against Bovine Carbonic Anhydrase-II; format: biochemical; parameters: Vmax app: unit not given here; conditions: for Type of Inhibition: Lineweaver-Burk / Dixon plots; for Vmax: enzyme Vmax without inhibitor; for Vmax app: apparent Vmax with inhibitor (0.2-0.00625 μM)
T2 construct: pure bovine erythrocyte CA-II; from tissue; host or cells: bovine erythrocytes
Experimental: FIG. 2B depicts the double reciprocal plot for Ki determination which is between Slope Vs Inhibitor Conc.
FIG. 3B depicts the double reciprocal plot for Ki determination which is between Slope Vs Inhibitor Conc.
Kinetics studies were performed for each analogue. […] The Grafit version 7.0 was used for the construction of Lineveawer-Burk plots and their secondary replots.

[3] = MTT cytotoxicity assay; format: cell-based; conditions: mouse, 3T3 mouse fibroblast cells, 3T3 cells, 50% growth inhibition, read-out: Cytotoxicity IC50 ± SD
Experimental: Cytotoxicity studies were performed using a colorimetric assay that measures the reduction of 3-(4,5-dimethythiazol-2-yl)-2,5-diphenyl tetrazolium bromide (MTT) (yellow in color), by mitochondrial enzyme (i.e. succinate dehydrogenase). The MTT enters into the mitochondria of cell, where it is reduced to an insoluble formazan salt (purple in color). The extent of MTT reduction to formazan within cells was measured spectrophotometrically. As reduction of MTT can only occur in metabolically active cells the level of activity is actually a measure of the viability of the cells^22.
Mouse fibroblast cell line 3T3 was cultured in DMEM, supplemented with 5% of FBS, 100 IU/ml of penicillin and 100 μg/ml of streptomycin, and kept at 37° C. in 5% CO2 incubator. For the preparation of cell culture 100 μL/well of cell solution (5×10^4 cells/ml) was added into 96-well plate. The plate was incubated for overnight, and fresh medium was added after the removal of old medium. The test compounds were also added in different concentrations into the plate and plate was again incubated for 48 hrs. After the completion of this incubation period 200 μL MTT (0.5 mg/ml) was added and plate was again incubated for 4 hrs, after this final incubation 100 μL of DMSO was added to each well. The level of MTT reduction to formazan was evaluated by change in absorbance at 540 nm using a micro plate reader (Spectra Max plus, Molecular Devices, CA, USA).

[4] = molecular target: T3, Human Carbonic Anhydrase-II (human erythrocyte CA-II) (Homo sapiens, UniProt P00918); test: HCA-II inhibitory activity, 4-nitrophenyl acetate spectrophotometric assay; format: biochemical; conditions: 4-nitrophenyl acetate 0.7 mM, pH 7.4, 25° C., 15 min preincubation; read-out: IC50 ± S.E.M. HCA-II
T3 construct: purified human erythrocyte CA-II; from tissue; host or cells: human erythrocytes
Experimental: as §1
Hydrolysis of 4-NPA (a colorless compound): yields 4-nitrophenol and […]. The reaction is monitored by quantifying the formation of 4-nitrophenol, a yellow colored compound.
In successive experiments, HEPES-tris was used as a buffer for the reaction at final concentration of 20 mM, with 7.4 pH. The total reaction volume of 200 μL includes, 140 μL of the HEPES-tris, 20 μL of test compound diluted in DMSO (20 μL of DMSO as a control sample), 20 μL of purified human erythrocyte CA-II (0.1 mg/mL) prepared in deionized water and 20 μL of a solution of 4-NPA (0.7 mM diluted in ethanol). Adhesion of enzyme with the plastic-ware was avoided by the addition of bovine serum albumin (1 mg/mL).
The 20 μL of test compound was incubated with enzyme for a period of 15 min. The rate of product formation was monitored with the addition of 20 μL substrate prepared in ethanol at a final concentration of 0.7 mM 4-nitrophenyl acetate at 25° C. for a period of 30 min with regular interval of 1 min.
The assay was performed in triplicates by using 96-well flat bottom plate.
The enzyme inhibitory activities were calculated using the following formula: […]
as §2

[5] = 4-nitrophenyl acetate 0.7 mM, pH 7.4, 15 min preincubation, read-out: IC50 ± S.E.M. BCA-II
[6] = from secondary replots / Dixon plot, read-out: Ki

T2 sequence (P00921 whole entry): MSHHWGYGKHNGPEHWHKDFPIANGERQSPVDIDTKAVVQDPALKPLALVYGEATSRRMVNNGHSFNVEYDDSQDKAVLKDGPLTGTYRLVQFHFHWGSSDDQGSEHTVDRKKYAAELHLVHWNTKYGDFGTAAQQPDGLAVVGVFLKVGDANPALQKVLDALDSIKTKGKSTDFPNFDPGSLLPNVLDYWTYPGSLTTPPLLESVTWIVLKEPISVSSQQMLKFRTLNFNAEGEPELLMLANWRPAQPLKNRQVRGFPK
T1 sequence (P00921 whole entry): as above

Row | SMILES | IC50 [1] | Ki [2] | Type of Inhibition [2] | Vmax [2] | IC50 at 48 h [3] | IC50 [1, 5] | Vmax app [2] | Ki [2, 6] | IC50 [4]
1 | NS(=O)(=O)c1ccc(NC(=S)NC(=O)c2ccccc2)cc1 [Compound 1, N-(4-Sulfamoylphenylcarbamothioyl)benzamide] | 90 ± 7 nM | 52 nM | Noncompetitive | 99.00 (μM/L/min)^−1 | > 30 µM | – | – | – | –
2 | NS(=O)(=O)c1ccc(NC(=S)NC(=O)c2ccc(Cl)cc2)cc1 [Compound 2, 4-Chloro-N-(4-sulfamoylphenylcarbamothioyl)benzamide] | – | – | Noncompetitive | 80 (μM/L/min)^−1 | > 30 µM | 160 ± 2 nM | 18.45 | 110 nM | 210 ± 10 nM
3 | Cc1ccc(C(=O)NC(=S)Nc2ccc(S(N)(=O)=O)cc2)cc1 [Compound 3, 4-Methyl-N-(4-sulfamoylphenylcarbamothioyl)benzamide] | – | – | Mixed type | 80 (μM/L/min)^−1 | > 30 µM | 80 ± 3 nM | 52.63 | 58 nM | 90 ± 30 nM
4 | NS(=O)(=O)c1ccc(NC(=S)NC(=O)c2ccc([N+](=O)[O-])cc2)cc1 [Compound 4, 4-Nitro-N-(4-sulfamoylphenylcarbamothioyl)benzamide] | – | – | Noncompetitive | 53.19 (μM/L/min)^−1 | > 30 µM | 130 ± 2 nM | 18.97 | 220 nM | 240 ± 40 nM
5 | NS(=O)(=O)c1ccc(NC(=S)NC(=O)c2cccc(Cl)c2)cc1 [Compound 5, 3-Chloro-N-(4-sulfamoylphenylcarbamothioyl)benzamide] | – | – | Noncompetitive | 76.33 (μM/L/min)^−1 | > 30 µM | 140 ± 6 nM | 25.83 | 250 nM | 280 ± 60 nM
6 | NS(=O)(=O)c1ccc(NC(=S)NC(=O)c2cccc([N+](=O)[O-])c2)cc1 [Compound 6, 3-Nitro-N-(4-sulfamoylphenylcarbamothioyl)benzamide] | – | – | Mixed type | 82.64 (μM/L/min)^−1 | > 30 µM | 80 ± 4 nM | 17.48 | 90 nM | 190 ± 1 nM
7 | NS(=O)(=O)c1ccc(NC(=S)NC(=O)c2ccccc2[N+](=O)[O-])cc1 [Compound 7, 2-Nitro-N-(4-sulfamoylphenylcarbamothioyl)benzamide] | – | – | Mixed type | 71.42 (μM/L/min)^−1 | > 30 µM | 60 ± 5 nM | 19.30 | 140 nM | 120 ± 2 nM
8 | NS(=O)(=O)c1ccc(NC(=S)NC(=O)Cc2ccccc2)cc1 [Compound 8, 2-Phenyl-N-(4-sulfamoylphenylcarbamothioyl)acetamide] | – | – | Mixed type | 81.30 (μM/L/min)^−1 | > 30 µM | 70 ± 3 nM | 7.77 | 35 nM | 160 ± 1 nM
9 | Cc1ccccc1C(=O)NC(=S)Nc1ccc(S(N)(=O)=O)cc1 [Compound 9, 2-Methyl-N-(4-sulfamoylphenylcarbamothioyl)benzamide] | – | – | Noncompetitive | 90.90 (μM/L/min)^−1 | > 30 µM | 80 ± 2 nM | 14.61 | 58 nM | 180 ± 4 nM
10 | Cc1cccc(C(=O)NC(=S)Nc2ccc(S(N)(=O)=O)cc2)c1 [Compound 10, 3-Methyl-N-(4-sulfamoylphenylcarbamothioyl)benzamide] | – | – | Noncompetitive | 62.5 (μM/L/min)^−1 | > 30 µM | 90 ± 2 nM | 10.61 | 67 nM | 190 nM
11 | COc1cccc(C(=O)NC(=S)Nc2ccc(S(N)(=O)=O)cc2)c1 [Compound 11, 3-Methoxy-N-(4-sulfamoylphenylcarbamothioyl)benzamide] | – | – | Noncompetitive | 88.49 (μM/L/min)^−1 | > 30 µM | 90 ± 3 nM | 35.21 | 280 nM | 190 ± 5 nM
12 | NS(=O)(=O)c1ccc(NC(=S)NC(=O)c2ccc(Cl)cc2[N+](=O)[O-])cc1 [Compound 12, 4-Chloro-2-nitro-N-(4-sulfamoylphenylcarbamothioyl)benzamide] | – | – | Mixed type | 108.69 (μM/L/min)^−1 | > 30 µM | 280 ± 7 nM | 34.12 | 24 nM | 460 ± 30 nM
13 | NS(=O)(=O)c1ccc(NC(=S)NC(=O)c2ccc(F)cc2)cc1 [Compound 13, 4-Fluoro-N-(4-sulfamoylphenylcarbamothioyl)benzamide] | – | – | – | – | > 30 µM | 130 ± 20 nM | – | – | 580 ± 1 nM
14 | COc1cc(C(=O)NC(=S)Nc2ccc(S(N)(=O)=O)cc2)cc(OC)c1OC [Compound 14, 3,4,5-Trimethoxy-N-(4-sulfamoylphenylcarbamothioyl)benzamide] | – | – | – | – | > 30 µM | 60 nM | – | – | 170 ± 2 nM
15 | NS(=O)(=O)c1ccc(NC(=S)NC(=O)c2ccc([N+](=O)[O-])cc2Cl)cc1 [Compound 15, 2-Chloro-4-nitro-N-(4-sulfamoylphenylcarbamothioyl)benzamide] | – | – | – | – | > 30 µM | 60 ± 1 nM | – | – | 160 ± 10 nM
